We go through eleven molecules from ChEMBL document CHEMBL1201862, “PubChem BioAssay data set” (2004).

Holding throughout (experiment): NCI-60 cell line screen, 48 h
Assay [1] concerns ACHN.
For assay [2], the system named is BT-549.
For assay [3], the system named is COLO 205.
Assay [4] deals with HCT-116.
The subject of assay [5] is Hs-578T.
In assay [6] the test system is K562.
Assay [7] relates to KM12.
Assay [8] deals with LOX IMVI.
Assay [9] concerns MCF7.
Assay [10] relates to MDA-MB-231.
Assay [11] has as its system MDA-N.
For assay [12], the system named is Malme-3M.
Assay [13] deals with NCI-H23.
Assay [14] has as its system OVCAR-3.
The subject of assay [15] is SK-MEL-28.
Assay [16] concerns SK-MEL-5.
In assay [17] the test system is SNB-19.
Assay [18] deals with TK-10.
Assay [19] relates to U-251.
In assay [20] the test system is SR.

Structures are written as SMILES.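 The compound was tested at five concentrations on cells cultured in 96-well plates, with a 48-hour exposure period. GI50 is the concentration that inhibits growth by half.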 Activity calls are given as the source filed them. Rule as the data show it: active = GI50 up to about 1.1 µM and inactive = higher.

For the molecule `OCCSCc1cc(Cl)cc(Cl)c1O`, the GI50 in [1], in assay [2], in assay [3], in assay [4], in assay [5] and in assay [6] was > 100 µM (inactive) each time. For the same molecule, the GI50 in assay [7], in assay [8], in [9], in assay [10], in assay [11] and in assay [12] was > 100 µM (inactive) throughout. Also, the GI50 in assay [13], in [14], in [15], in assay [16], in assay [17] and in assay [18] was > 100 µM (inactive) throughout. Also, in assay [19], the GI50 was > 100 µM (inactive).
As to `CCOC(=O)/C(C(=O)c1ccc([N+](=O)[O-])cc1)=C(\NS(=O)(=O)c1cc(C)c(Cl)cc1[S-])[n+]1ccc(N(C)C)cc1`, the GI50 in [1] is 30.1 µM (inactive); in assay [2], 35.5 µM (inactive); in assay [3] it was 29.9 µM (inactive); in [4], 19.2 µM (inactive); in assay [6], 32.1 µM (inactive); in assay [7] it was 27.4 µM (inactive). Also, the GI50 in assay [9] is 40.3 µM (inactive); in assay [10], 47.9 µM (inactive); in [11], 35.5 µM (inactive); in assay [12], 14.4 µM (inactive); in [14], 32.3 µM (inactive); in assay [15] it was 28.3 µM (inactive). Besides, the GI50 is 42.8 µM (inactive) in [16], 31.6 µM (inactive) in [20], 18.7 µM (inactive) in assay [18] and 41.6 µM (inactive) in [19].
On to `CNC(=S)N/N=C(\C(=N/NC(=S)NC)c1ccccn1)c1ccccn1`, for which the GI50 was 2.99 µM (inactive) in assay [1]; 14.4 µM (inactive) in assay [2]; 1.41 µM (inactive) in assay [3]; < 0.0306 µM (active) in [4]; 5.38 µM (inactive) in assay [5]; 4.55 µM (inactive) in assay [6]. Moreover, the GI50 in assay [7] was 14.2 µM (inactive); in assay [8], 4.82 µM (inactive); in assay [9], < 0.0355 µM (active); in assay [11], 44.3 µM (inactive); in assay [12], 4.73 µM (inactive); in [13], 9.12 µM (inactive). Also, the GI50 in assay [14] is 0.31 µM (active); in [15], 29 µM (inactive); in [16], 1.53 µM (inactive); in assay [17], 10.3 µM (inactive); in assay [18], 4.04 µM (inactive); in assay [19] it was 0.289 µM (active).
On to `CC(NC(=O)OC(C)(C)C)C(=O)NC(Cc1ccccc1)C(=O)NCC(=O)ON=C1CCCC1` (stereo not drawn), for which the GI50 was > 100 µM (inactive) in assay [1]; > 100 µM (inactive) in assay [2]; > 100 µM (inactive) in assay [3]; 72.8 µM (inactive) in assay [4]; 43.6 µM (inactive) in [6]; 57.4 µM (inactive) in [7]. Moreover, the GI50 was > 100 µM (inactive) in assay [8]; 63.1 µM (inactive) in assay [9]; 43.5 µM (inactive) in assay [10]; 35.6 µM (inactive) in assay [11]; > 100 µM (inactive) in assay [12]; > 100 µM (inactive) in assay [13]. For the same molecule, the GI50 in assay [14] was > 100 µM (inactive); in [15], > 100 µM (inactive); in assay [16] it was > 100 µM (inactive); in assay [17] it was > 100 µM (inactive); in assay [20] it was 31 µM (inactive); in [18] it was > 100 µM (inactive). Further, the GI50 in assay [19] was 68.1 µM (inactive).
`COC(=O)c1c(O)c2c(c3c1OC(C)(C)CC3)OC(C)(C)CC2`: the GI50 in assay [1] is 18 µM (inactive); in [2] it was 20 µM (inactive); in assay [3], 15 µM (inactive); in assay [4], 16.8 µM (inactive); in [5], 20.8 µM (inactive); in assay [6], 25.1 µM (inactive). For the same molecule, the GI50 in assay [7] was 16.9 µM (inactive); in assay [9] it was 18.2 µM (inactive); in [10] it was 13.7 µM (inactive); in assay [11], 22.1 µM (inactive); in [12] it was 0.824 µM (active); in assay [13], 20.1 µM (inactive). Further, the GI50 is 20 µM (inactive) in [14]; 26.6 µM (inactive) in assay [15]; 15 µM (inactive) in assay [16]; 18.2 µM (inactive) in assay [17]; > 10 µM (inactive) in [18]; 15.2 µM (inactive) in assay [19].
Take `CCC(=O)Nc1cccc(NC(=O)c2c(Cl)c(Cl)c(Cl)c(Cl)c2-c2nc3ccccc3[nH]2)c1`: the GI50 in [1] was 80.7 µM (inactive); in assay [2], 87.3 µM (inactive); in assay [3] it was 53.1 µM (inactive); in [4], 7.82 µM (inactive); in [5] it was > 100 µM (inactive); in assay [6] it was 25.4 µM (inactive). Also, the GI50 in assay [7] was 0.0968 µM (active); in [8] it was 77.4 µM (inactive); in assay [9], 12.7 µM (inactive); in assay [11], 22 µM (inactive); in [12], > 100 µM (inactive); in assay [13] it was > 100 µM (inactive). Further, the GI50 in assay [14] is > 100 µM (inactive); in assay [15], > 100 µM (inactive); in assay [16] it was > 100 µM (inactive); in assay [17], 1.03 µM (active); in assay [20], 17.6 µM (inactive).
As for `CC1(C)CNCC(C)(OCc2ccccc2)C(=O)NC(C)(C)CNCC(C)(OCc2ccccc2)C(=O)N1` (stereo not drawn), the GI50 in assay [1] is > 10 µM (inactive); in assay [2] it was > 10 µM (inactive); in assay [4], 8.99 µM (inactive); in assay [5], 5.09 µM (inactive); in assay [6] it was > 10 µM (inactive); in assay [7] it was > 10 µM (inactive). Also, the GI50 in assay [8], in [9], in assay [10], in assay [11], in assay [12] and in [13] was > 10 µM (inactive) throughout. Further, the GI50 in [14], in assay [15], in [16], in assay [17], in [18] and in assay [19] was > 10 µM (inactive) throughout.
With `O=C1c2ccccc2-c2c1c(-c1ccc(F)cc1)nc1ccc3ccccc3c21`, the GI50 in assay [1], in assay [2], in [3], in assay [4], in [5] and in assay [6] was > 100 µM (inactive) in each case. In addition, the GI50 in assay [7], in assay [8], in [9], in [10], in assay [11] and in assay [12] was > 100 µM (inactive) each time. In addition, the GI50 in assay [13], in [14], in assay [15], in assay [17] and in [19] was > 100 µM (inactive) throughout.
`CC(=N/NC(=S)N(C)C)/C(=N\NC(=S)N(C)C)c1ccccc1`: the GI50 in assay [1] is 1.71 µM (inactive); in assay [2] it was 2.17 µM (inactive); in assay [3], 1.79 µM (inactive); in [4], 2.93 µM (inactive); in assay [5] it was 3.11 µM (inactive); in assay [6] it was 5.15 µM (inactive). The GI50 was 2.15 µM (inactive) in assay [7]; 3.08 µM (inactive) in assay [8]; 2.84 µM (inactive) in [9]; 3.1 µM (inactive) in assay [10]; 2.11 µM (inactive) in [11]; 1.75 µM (inactive) in assay [12]. The GI50 in assay [13] is 2.32 µM (inactive); in [14] it was 1.76 µM (inactive); in [15] it was 1.9 µM (inactive); in assay [16] it was 1.64 µM (inactive); in assay [17] it was 2.56 µM (inactive); in assay [18], 1.59 µM (inactive). Besides, the GI50 in assay [19] is 2.8 µM (inactive).
Regarding `CC1N[B@@-](C)(c2ccc(C(F)(F)F)cc2)OC1c1ccccc1` (stereo partly drawn), the GI50 in assay [1] is 36.9 µM (inactive); in [2], > 100 µM (inactive); in assay [3], > 100 µM (inactive); in assay [4], 89.3 µM (inactive); in [6], 66.2 µM (inactive); in [8], 98.2 µM (inactive). Besides, the GI50 in assay [9] was 59.7 µM (inactive); in assay [10], > 100 µM (inactive); in assay [11], > 100 µM (inactive); in assay [12], 86.3 µM (inactive); in [13] it was > 100 µM (inactive); in assay [14] it was 57.8 µM (inactive). In addition, the GI50 was > 100 µM (inactive) in assay [15]; 87.7 µM (inactive) in [16]; > 100 µM (inactive) in [17]; 31.3 µM (inactive) in assay [20]; > 100 µM (inactive) in [18]; > 100 µM (inactive) in [19].
Regarding `COc1cccc(/C=C2\CCCCCC2=O)c1`, the GI50 in assay [1] is > 100 µM (inactive); in assay [2] it was > 100 µM (inactive); in assay [3], > 100 µM (inactive); in [4], 80.7 µM (inactive); in [5], > 100 µM (inactive); in assay [6] it was 72.3 µM (inactive). The GI50 was 65.5 µM (inactive) in assay [7]; > 100 µM (inactive) in assay [8]; > 100 µM (inactive) in [10]; > 100 µM (inactive) in assay [11]; > 100 µM (inactive) in [12]; > 100 µM (inactive) in [13]. Further, the GI50 in assay [14] was > 100 µM (inactive); in assay [15], > 100 µM (inactive); in assay [16], 70.1 µM (inactive); in assay [17], 19.7 µM (inactive); in [20], 26.7 µM (inactive); in [18], > 100 µM (inactive). Besides, in assay [19], the GI50 was 65.3 µM (inactive).
